Consider six molecules from patent publication US8778871B2 (Takeda Pharmaceutical Company Limited, priority 2004, dated 2014).

Assay [1] addresses T1, hOT7T175 (Homo sapiens, UniProt Q969F8).
T1 construct: expressed in transfected cells
Description: Intracellular Ca ion level-increasing activity using FLIPR (180 seconds; specific activity to Metastin (1-54)). In kind it is cell-based. The conditions noted are these: hOT7T175/CHO, change in intracellular calcium ion level for 180 seconds, Tables 21-23.

Assay [2] has as its target T2, hOT7T175 (Homo sapiens, UniProt Q969F8, L364H).
T2 construct: expressed in transfected cells
In kind it is cell-based. To be noted: hOT7T175/CHO, FLIPR, evaluation for 40 seconds after initiation of the reaction.
Description: The intracellular Ca ion level-increasing activity was measured using FLIPR as in TEST EXAMPLE 2.

The nature of assay [3]: Blood testosterone level decreasing effect in mature male rat (2 mM peptide solution, ALZET osmotic pump). In kind it is in vivo. The conditions noted are these: 2 mM peptide solution in distilled water, ALZET osmotic pump s.c., 6 days, Tables 28 and 29. The procedure:
(§1) This peptide solution was filled in 5 ALZET osmotic pumps (Model 2001, 0.2 ml in volume, release rate: 0.001 ml/hr, DURECT Corporation). The ALZET pumps filled with the peptide solution were implanted subcutaneously in 5 CD(SD)IGS male rats of 9 weeks old after birth (Charles River Japan, Inc.) on the back under ether anesthesia by one pump for one animal. For negative control, distilled water (Otsuka Pharmaceutical Co., Ltd.) was filled in 5 ALZET osmotic pumps, which were similarly implanted in 5 male CD(SD)IGS rats (Charles River Japan, Inc.), respectively. These pump-implanted rats were fed for 6 days under normal feeding conditions. After weighing, the animal was decapitated to collect blood. After 0.03 ml/ml blood of aprotinin solution (Trasylol, Bayer) containing 0.1 mg/ml EDTA.2Na was added to blood, the mixture was centrifuged at 1,800 G for 25 minutes to isolate/recover plasma. From the plasma obtained, 0.05 ml was applied to radioimmunoassay (DPC.Total Testosterone Kit, Diagnostic Products Corporation) to measure the plasma testosterone level of each rat. The value below the limit of measurement (0.04 ng/ml of plasma level) in radioimmunoassay was treated as 0. A mean value of the testosterone levels from 5 rats receiving the peptide was calculated and a relative value (percent) of the mean value to a mean value from 5 rats receiving distilled water.

Assay [4] in a line: Blood testosterone level decreasing effect in mature male rat (0.1 mM peptide solution). In kind it is in vivo. The procedure:
as §1
In a manner similar to TEST EXAMPLE 14, evaluation was made using 0.1 mM peptide solution and a part of the results obtained are shown in TABLE 30.

In assay [5] the target is T2, hOT7T175. Description: Intracellular Ca ion level-increasing activity using FLIPR (180 seconds; specific activity to Metastin (1-54)). In kind it is cell-based. The conditions noted are these: hOT7T175/CHO, relative to Metastin (1-54) = 1.

Non-standard residues stand in square brackets, D forms with d. No end group written: not given here. Arg(Me) = CNC(=N)NCCC[C@H](N)C(=O)O; azaGly = NNC(=O)O

T1 sequence (Q969F8 whole entry L364H): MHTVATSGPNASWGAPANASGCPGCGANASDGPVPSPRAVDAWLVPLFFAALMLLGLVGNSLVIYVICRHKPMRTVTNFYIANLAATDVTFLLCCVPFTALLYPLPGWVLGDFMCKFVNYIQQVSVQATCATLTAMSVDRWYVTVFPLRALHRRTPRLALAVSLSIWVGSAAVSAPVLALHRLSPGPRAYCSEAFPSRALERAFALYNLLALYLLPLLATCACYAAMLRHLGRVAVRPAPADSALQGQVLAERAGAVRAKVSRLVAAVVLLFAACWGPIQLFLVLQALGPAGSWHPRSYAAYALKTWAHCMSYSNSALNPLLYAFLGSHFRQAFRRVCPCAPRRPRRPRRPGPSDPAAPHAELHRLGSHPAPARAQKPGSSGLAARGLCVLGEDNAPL
T2 sequence (Q969F8 whole entry L364H): as above

For “3-Phenylpropionyl-Asn-Ser-Phe-AzaGly-Leu-Arg(Me)-Trp-NH2 [Compound No. 499]”, the “intracellular Ca ion level-increasing activity [specific activity to Metastin (1-54)]” value in assay [1] was 10. Further, in assay [2], the “Specific Act. (EC50/MS10 EC50)” value came out at 1.4. The “Teststerone level in Blood” value in assay [3] came out at 2%; in assay [4] it was 32%.
For `CNC(=N)NCCC[C@H](NC(=O)[C@H](CC(C)C)NC(=O)CNC(=O)[C@H](Cc1ccccc1)NC(=O)[C@H](CO)NC(=O)[C@H](CC(N)=O)NC(=O)[C@H](Cc1c[nH]c2ccccc12)NC(=O)[C@H](CC(N)=O)NC(=O)[C@H](N)Cc1ccc(O)cc1)C(=O)N[C@@H](Cc1ccccc1)C(N)=O` [Compound No. 141], the “Specific Act. (intracellular Ca ion level-increasing activity, specific activity to Metastin (1-54))” value in assay [5] is on record as 10. Further, the “Specific Act. (EC50/MS10 EC50)” value in assay [2] amounted to 1.6. In addition, the “Teststerone level in Blood” value in assay [3] was found to be 31%.
As to `CC(C)C[C@H](NC(=O)NNC(=O)[C@H](Cc1ccccc1)NC(=O)[C@H](CO)NC(=O)[C@H](CC(N)=O)NC(=O)[C@H](Cc1c[nH]c2ccccc12)NC(=O)[C@H](CC(N)=O)NC(=O)[C@@H](N)Cc1ccc(O)cc1)C(=O)N[C@@H](CCCNC(=N)N)C(=O)N[C@@H](Cc1ccccc1)C(N)=O` [Compound No. 176, Tyr-Asn-Trp-Asn-Ser-Phe-AzaGly-Leu-Arg-Phe-NH2], the “Specific Act. (intracellular Ca ion level-increasing activity, specific activity to Metastin (1-54))” value in assay [5] was 5. Further, in assay [2], the “Specific Act. (EC50/MS10 EC50)” value came to 1.3. The “Teststerone level in Blood” value in assay [3] came out at 12%.
For “D-Tyr-D-Pya(4)-Asn-Ser-Phe-AzaGly-Leu-Arg(Me)-Trp-NH2 [Compound No. 385]”, the “intracellular Ca ion level-increasing activity [specific activity to Metastin (1-54)]” value in assay [1] is given as 10. Besides, the “Specific Act. (EC50/MS10 EC50)” value in assay [2] amounted to 0.7. In addition, the “Teststerone level in Blood” value in assay [3] is recorded as 2%; in assay [4], 33%.
For H-YNWNSFGLRW-NH2 [Compound No. 134], the “Specific Act. (intracellular Ca ion level-increasing activity, specific activity to Metastin (1-54))” value in assay [5] was found to be 30. In assay [2], the “Specific Act. (EC50/MS10 EC50)” value came out at 0.5. Further, the “Teststerone level in Blood” value in assay [3] came to 50%.
As to “[dY][dW]NTF[azaGly]L[Arg(Me)]W-NH2 [Compound No. 512]”, in assay [1], the “intracellular Ca ion level-increasing activity [specific activity to Metastin (1-54)]” value came to 30. Moreover, in assay [2], the “Specific Act. (EC50/MS10 EC50)” value worked out at 0.8. The “Teststerone level in Blood” value in assay [3] is listed as 2%; in assay [4], 38%.
